Source: patent publication US6423376B1, “Tartaric acid diesters as biodegradable surfactants” (Air Products and Chemicals, Inc., priority 2000, dated 2002)
Where a name gives a salt, the structure may show the parent alone.

How the values were obtained:
[1] = Dynamic surface tension of aqueous solutions, maximum bubble pressure method; type: physicochemical; settings: for limiting γ (0.1 b/s) / limiting γ (1 b/s) / limiting γ (6 b/s) / limiting γ (20 b/s): lowest surface tension in water; for pC20: negative logarithm of molar concentration giving 52.1 dyne/cm at 0.1 b/s; for decrease in the limiting surface tension: in comparison to dipentyl-L-tartrate
Text: where R1 and R2 are independently a C4 to C6 alkyl group, but preferably are the same; provided that when the water-based composition is an ink, R1 and R2 are independently a C5 or C6 alkyl group. […] The maximum-bubble-pressure method of measuring surface tension is described in Langmuir 1986, 2, 428-432, which is incorporated by reference.
In the following Examples dynamic surface tension data were obtained for aqueous solutions of various compounds using the maximum bubble pressure method at bubble rates from 0.1 bubbles/second (b/s) to 20 b/s. […] In practical terms, high bubble rates correspond to high printing speeds in lithographic printing, high spray or roller velocities in coating applications, and rapid application rates for agricultural products.
Dynamic surface tension data were obtained for a 0.1 wt % aqueous solution of the 9.5 mole ethoxylate of nonylphenol using the maximum bubble pressure method at bubble rates from 0.1 bubbles/second (b/s) to 20 b/s.
(§1) Solutions of the materials of Examples 1-12 in distilled water were prepared. […] The pC20 value is defined as the negative logarithm of the molar concentration of surfactant required to decrease the surface tension of an aqueous solution to 52.1 dyne/cm, that is, 20 dyne/cm below that of pure water when the measurement is performed at 0.1 b/s. This value is a measure of the efficiency of a surfactant. […] In addition, the relative efficiency of surfactants can be obtained by comparing surface tension reduction of solutions containing the same amount of different surfactants. Such data is given for 0.1 wt % solutions of the tartrates at 1.0 and 6.0 bubbles/second (b/s). The solubility limit was determined by intersection of the linear portion of a surface tension/In concentration curve with the limiting surface tension as is described in many textbooks. The limiting surface tensions at 0.1, 1, 6 and 20 b/s represent the lowest surface tensions in water which can be achieved at the given surface creation rates for a given surfactant regardless of the amount of surfactant used and is used to evaluate the effectiveness of a surfactant. These values give information about the relative ability to a surfactant to reduce surface defects under near-equilibrium conditions (0.1 b/s) through very dynamic conditions (20 b/s). Lower surface tensions would allow the elimination of defects upon application of a formulation onto lower energy surfaces.

[2] = Solubility limit in water from surface tension/ln concentration curve; type: physicochemical; settings: in distilled water
Description: as §1

[3] = Foam test based upon ASTM D 1173-53; type: physicochemical; settings: 0.1 wt % solution
Text: The foaming properties of a 0.1 wt % solution of the comparative example (nonylphenol 9.5 mole ethoxylate) and various dialkyltartrates (diisopropyl-(D)-tartrate, dibutyl-L-tartrate. diisobutyl-DL-tartrate, di-sec-butyl-DL-tartrate, dipentyl-DL-tartrate, diisoamyl-DL-tartrate, di-(2-methyl-butyl)-DL-tartrate, dineopentyl-DL-tartrate, dihexyl-DL-tartrate, di-(4-methyl-2-pentyl)-DL-tartrate, dibenzyl-DL-tartrate and di-(2-ethyl-hexyl)-DL-tartrate) were examined using a procedure based upon ASTM D 1173-53. In this test, a 0.1 wt % solution of the surfactant is added from an elevated foam pipette to a foam receiver containing the same solution. The foam height is measured at the completion of the addition (“Initial Foam Height”) and the time required for the foam to dissipate at the air-liquid interface (“Time to 0 Foam”) is recorded. This test provides a comparison between the foaming characteristics of various surfactants. In general, in coatings, inks, adhesives and agricultural formulations, foam is undesirable because is complicates handling and can lead to coating and print defects, and to inefficient application of agricultural materials.

| γ (0.1 wt % solution) (1 b/s) ([1]; 1 b/s) [Dyne/cm] | γ (0.1 wt % solution) (6 b/s) ([1]; 6 b/s) [Dyne/cm] | limiting γ (0.1 b/s) ([1]; 0.1 b/s) [Dyne/cm] | limiting γ (1 b/s) ([1]; 1 b/s) [Dyne/cm] | limiting γ (6 b/s) ([1]; 6 b/s) [Dyne/cm] | limiting γ (20 b/s) ([1]; 20 b/s) [Dyne/cm] | pC20 [1] | solubility limit [2] | initial foam [3] [cm] | time to zero foam [3] [s] | time to zero foam ([3]; unit not given) | Compound | other results |
| --- | --- | --- | --- | --- | --- | --- | --- | --- | --- | --- | --- | --- |
| – | – | – | – | – | – | – | >5% Weight % | – | – | – | CC(C)OC(=O)C(O)C(O)C(=O)OC(C)C [Example 1, Diisopropyl-D-tartrate] | – |
| 42.2 | 46.8 | 41.3 | 49.9 | 56.1 | 68.2 | 3.7 | 0.02 Weight % | 0.8 | 0.3 | – | CC(C)CC(C)OC(=O)C(O)C(O)C(=O)OC(C)CC(C)C (racemic) [Example 10, Di(4-methyl-2-pentyl)-DL-tartrate] | – |
| 38.7 | 39.8 | 35.1 | 35.5 | 36.1 | 38.4 | 3.5 | 0.2 Weight % | 0 | – | 0 | CC(C)(C)COC(=O)C(O)C(O)C(=O)OCC(C)(C)C (racemic) [Example 8, Dineopentyl-DL-tartrate] | decrease in the limiting surface tension ([1]; 20 b/s): 3.2 dyne/cm |
| 35.4 | 36.7 | 34.9 | 35.7 | 37.2 | 40.3 | 3.7 | 0.1 Weight % | 0 | – | 0 | CC(C)CCOC(=O)C(O)C(O)C(=O)OCCC(C)C (racemic) [Example 6, Diisoamyl-DL-tartrate] | decrease in the limiting surface tension ([1]; 20 b/s): 1.3 dyne/cm |
| 36.8 | 37.8 | 35.9 | 36.8 | 37.8 | 41.6 | 3.3 | 0.1 Weight % | 0 | – | 0 | CCCCCOC(=O)C(O)C(O)C(=O)OCCCCC (racemic) [Example 5, Dipentyl-DL-tartrate] | – |

Further lines, the compound ahead of its results:

| Compound | γ (0.1 wt % solution) (1 b/s) ([1]; 1 b/s) [Dyne/cm] | γ (0.1 wt % solution) (6 b/s) ([1]; 6 b/s) [Dyne/cm] | limiting γ (0.1 b/s) ([1]; 0.1 b/s) [Dyne/cm] | limiting γ (1 b/s) ([1]; 1 b/s) [Dyne/cm] | limiting γ (6 b/s) ([1]; 6 b/s) [Dyne/cm] | limiting γ (20 b/s) ([1]; 20 b/s) [Dyne/cm] | pC20 [1] | solubility limit [2] | initial foam [3] [cm] | time to zero foam [3] [s] | time to zero foam ([3]; unit not given) | other results |
| --- | --- | --- | --- | --- | --- | --- | --- | --- | --- | --- | --- | --- |
| CCCCCCOC(=O)C(O)C(O)C(=O)OCCCCCC (racemic) [Example 9, Dihexyl-DL-tartrate] | 59.0 | 65.9 | 40.5 | 59.0 | 65.9 | 70.0 | 3.8 | 0.01 Weight % | 1.3 | 0.1 | – | – |
| CCC(C)OC(=O)C(O)C(O)C(=O)OC(C)CC (racemic) [Example 4, Di-sec-butyl-DL-tartrate] | 52.2 | 53.2 | 35.1 | 35.0 | 35.0 | 36.0 | 2.5 | 1.7 Weight % | 1.7 | 0.4 | – | – |
| CC(C)(C)COC(=O)C(O)C(O)C(=O)OCC(C)(C)C (racemic) (as salt: tartrate) [Example 8, Dineopentyl-DL-tartrate] | – | – | – | – | – | – | – | – | – | – | – | melting point: 75 °C |
| 9.5 mole ethoxylate of nonylphenol [reference compound] | – | – | – | – | – | – | – | – | 4.5 | >300 | – | Dynamic Surface Tension (0.1 b/s) ([1]; 0.1 wt % aqueous solution, 0.1 b/s): 33.2 dyne/cm; Dynamic Surface Tension (1 b/s) ([1]; 0.1 wt % aqueous solution, 1 b/s): 36.7 dyne/cm; Dynamic Surface Tension (6 b/s) ([1]; 0.1 wt % aqueous solution, 6 b/s): 44.3 dyne/cm; Dynamic Surface Tension (15 b/s) ([1]; 0.1 wt % aqueous solution, 15 b/s): 52.8 dyne/cm; Dynamic Surface Tension (20 b/s) ([1]; 0.1 wt % aqueous solution, 20 b/s): 56.2 dyne/cm |
| CCCCOC(=O)C(O)C(O)C(=O)OCCCC (racemic) [Example 2, Dibutyl-L-tartrate] | – | – | – | – | – | – | – | 1.1 Weight % | – | – | – | – |
| CC(C)COC(=O)C(O)C(O)C(=O)OCC(C)C (racemic) [Example 3, Diisobutyl-DL-tartrate] | 50.6 | 51.4 | 38.7 | 39.3 | 39.8 | 40.8 | 2.6 | 0.7 Weight % | 0.5 | 0.3 | – | – |
| CCCCC(CC)COC(=O)C(O)C(O)C(=O)OCC(CC)CCCC (racemic) [Example 12, Di(2-ethylhexyl)-DL-tartrate] | 69.8 | 70.5 | 66.7 | 69.8 | 70.5 | 71.3 | 1.6 | 0.06 Weight % | 0 | – | 0 | limiting γ (0.1 b/s) at 5 wt. % ([1]; 5 wt. %, cloudy mixture, 0.1 b/s): 38.5 dyne/cm; limiting γ (1 b/s) at 5 wt. % ([1]; 5 wt. %, cloudy mixture, 1 b/s): 40.3 dyne/cm; limiting γ (6.0 b/s) at 5 wt. % ([1]; 5 wt. %, cloudy mixture, 6.0 b/s): 41.2 dyne/cm; limiting γ (20 b/s) at 5 wt. % ([1]; 5 wt. %, cloudy mixture, 20 b/s): 44.8 dyne/cm |
| O=C(OCc1ccccc1)C(O)C(O)C(=O)OCc1ccccc1 (racemic) [Example 11, Dibenzyl-DL-tartrate] | 67.8 | 70.0 | 64.0 | 68.1 | 69.8 | 72.5 | 1.0 | 0.05 Weight % | 1.3 | 0.1 | – | – |
| CCC(C)COC(=O)C(O)C(O)C(=O)OCC(C)CC (racemic) [Example 7, Di(2-methyl-butyl)-DL-tartrate] | 39.0 | 39.8 | 35.6 | 36.0 | 36.0 | 38.5 | 3.2 | 0.1 Weight % | 0 | – | 0 | – |
